Patent publication US20230108442A1, “NOVEL ANTIMALARIAL AGENT CONTAINING HETEROCYCLIC COMPOUND” (Eisai R&D Management Co., Ltd., priority 2020, published 2023)
“And” between values parts separate entries of the source, which are not always exact repeats. Equal values may be shown once.

Tests used:
[1] = test system: Plasmodium falciparum strain 3D7 (chloroquine-sensitive); test: in vitro drug susceptibility test, parasite lactate dehydrogenase detection, strain 3D7; format: cell-based; settings: 72 hours incubation, pLDH absorbance at 660 nm, read-out: Pf_3D7 IC50
Experimental: (§1) Plasmodium falciparum strain 3D7 (chloroquine-sensitive) and K1 (chloroquine-resistant) were obtained from Kitasato University and used for testing antimalarial activities in vitro. The cultivation of P. falciparum was conducted according to Trager's method (Trager, W and Jensen and J., Human malaria parasites in continuous culture. Science, 193:673-677, 1976) with some modification. Precisely, parasites were kept in culture flasks with RPMI1640 medium supplemented with 10% human plasma and 2% fresh human erythrocytes and incubated at 37° C. with the gas condition of 5% CO2 and 5% 02. The parasitemia (percentage of infected erythrocytes to total erythrocytes) were kept within 0.25-10%. Culture medium were replaced and fresh erythrocytes were supplied every 2-3 days. Drug susceptibility test was conducted according to Desjardins's method (Desjardins, R. E., Canfield, C. J., Haynes, D. E. and Chulay, J. D., Quantitative assessment of antimalarial activity in vitro by a semiautomated microdilution technique. Antimicrob. Agents Chemother., 16:710-718, 1979) with some modification. The compounds I to IX and known antimalarial agents (chloroquine and artemisinin) were tested at the same time. Precisely, 199 micro L of parasite cultures (2% hematocrit and 0.75-1% parasitemia) and 1 micro L of compound solution serially diluted in DMSO were poured into every well in 96-well titer plates and final drug concentrations were set within 0.001-1 micro g/mL. The plates were kept at 37° C. with the gas condition of 5% CO2 and 5% O2 for 72 hours and then parasite growth was quantified with Makler's method to detect plasmodial lactate dehydrogenase (Makler, M. T., Rise, J. M., Williams, J. A., Bancroft, J. E., Piper, R. C., Gibbins, B. L. and Hinrichs, D. J., Parasite lactate dehydrogenase as an Assay for Plasmodium falciparum drug sensitivity. Am. J. Med. Hyg., 48:739-741, 1993) with some modification. Precisely, culture plate was kept in freezer overnight and then thawed at 37° C. to disrupt the erythrocytes and parasite cells. In the new 96-well titer plates, 100 micro L of enzyme reaction solution (110 mM Li-lactate, 0.5 mM acetylpyridine-adenine dinucleotide, 50 mM Tris (pH 7.5), 10 mM EDTA, 50 mM KCl and 15 g/L PEG6000) and 20 micro L of freeze-thaw culture were mixed in each well and then kept at room temperature for 30 minutes. The detection solution was prepared by mixing equal volume of 2 mg/mL nitro blue tetrazolium and 0.1 mg/mL phenazine ethosulfate and 20 micro L of the solution was added to each well. After the incubation at room temperature in the dark for 90 minutes, absorbance at 660 nm was analysed and IC50s were calculated from dose response curve.

[2] = test system: Plasmodium falciparum strain K1 (chloroquine-resistant); test: in vitro drug susceptibility test, parasite lactate dehydrogenase detection, strain K1; format: cell-based; settings: 72 hours incubation, pLDH absorbance at 660 nm, read-out: Pf_K1 IC50
Experimental: as §1

[3] = test system: Plasmodium falciparum Pf3D70087/N9; test: humanized murine malaria model, parasitemia by flow cytometry; format: in vivo; settings: oral, once daily for three days (I, V) or four days (II), start 72 h post infection, read seven days post infection
Experimental: The following pharmacological tests in the humanized murine malaria model were conducted using the compounds I, II and V at The Art of Discovery S.L. (Bizkaia, Spain). Briefly, mice engrafted with human erythrocytes were intravenously infected with parasitized red blood cells 72 h before drug treatment inception. The effect of treatment on parasitemia was assessed by measuring the percentage of infected erythrocytes in peripheral blood.
Plasmodium falciparum Pf3D70087/N9, the parasite strain used in this experiment, was described in reference (1). Immunodeficient female NSG (NOD-scid IL-2Rγnull) mice were engrafted with human erythrocytes to have a minimum of 40% of human erythrocytes circulating in peripheral blood during the whole experiment. Each mouse was intraperitoneally (i.p.) or intravenously (i.v.) inoculated with 1 mL (i.p.) or 0.7 mL (i.v.) of 50%-75% hematocrit erythrocyte suspension in RPMI1640 medium, 25% (vol/vol) decomplemented human serum, 3.1 mM hypoxanthine. Then humanized NSG mice were infected with peripheral blood from donor mice by intravenous injection of 0.3 mL of 1.17×10^8 parasitized-erythrocytes per ml suspension. Drug treatment was started after 72-h post infection. In the treatment, 10 ml/kg of compound solution were orally administered to each mouse, once daily for three or four days (three days for compounds I and V, four days for compound II, respectively). An analysis of the parasite population in peripheral blood was performed by flow cytometry as shown in reference (2) and the outcome was shown as the parasitemia expressed as the % of parasitized erythrocytes to the total erythrocytes in peripheral blood. Briefly, serial 2 micro L blood samples of peripheral blood from infected mice were stained with TER-119-Phycoerythrine (marker of murine erythrocytes) and SYTO-16 (nucleic acid dye) and then analyzed by flow cytometry. The therapeutic efficacies were expressed as ED90, the daily doses that reduce by 90% parasitemia to untreated control animals after seven days post infection.

IC50 [1] | IC50 [2] | Compound | ED90, daily dose that reduces parasitemia by 90% to untreated control animals [3]
0.078 µg/mL and 162 nM | 0.121 µg/mL and 249 nM | Cc1nn(C(F)F)cc1-c1cc(C(=O)NCc2ccc(O[C@H](C)C(F)(F)F)cc2)c(N)nc1N [III, (R)-2,6-diamino-5-(1-(difluoromethyl)-3-methyl-1H-pyrazol-4-yl)-N-(4-((1,1,1-trifluoropropan-2-yl)oxy)benzyl)nicotinamide] | 
125 nM | 0.031 µg/mL and 171 nM | Nc1nc(N)c(-n2cnc(C(F)(F)F)n2)cc1C(=O)NCc1ccc(OCC(F)(F)F)cc1 [IV, 2,6-diamino-N-(4-(2,2,2-trifluoroethoxy)benzyl)-5-(3-(trifluoromethyl)-1H-1,2,4-triazol-1-yl)nicotinamide] | 
0.024 µg/mL and 48 nM | 0.038 µg/mL and 75 nM | C[C@@H](Oc1ccc(CNC(=O)c2cc(-n3cnc(CC(F)(F)F)n3)c(N)nc2N)cc1)C(F)(F)F [VI, (R)-2,6-diamino-5-(3-(2,2,2-trifluoroethyl)-1H-1,2,4-triazol-1-yl)-N-(4-((1,1,1-trifluoropropan-2-yl)oxy)benzyl)nicotinamide] | 
0.016 µg/mL and 30 nM | 0.021 µg/mL and 41 nM | Nc1nc(N)c(-n2cnc(C3(C(F)(F)F)CC3)n2)cc1C(=O)NCc1ccc(OCC(F)(F)F)cc1 [VII, 2,6-diamino-N-(4-(2,2,2-trifluoroethoxy)benzyl)-5-(3-(1-(trifluoromethyl)cyclopropyl)-1H-1,2,4-triazol-1-yl)nicotinamide] | 
0.02 µg/mL and 54 nM | 0.031 µg/mL and 64 nM | C[C@@H](Oc1ccc(CNC(=O)c2cc(-n3cnc(C4(F)CC4)n3)c(N)nc2N)cc1)C(F)(F)F [VIII, (R)-2,6-diamino-5-(3-(1-fluorocyclopropyl)-1H-1,2,4-triazol-1-yl)-N-(4-((1,1,1-trifluoropropan-2-yl)oxy)benzyl)nicotinamide] | 

Continued, compound first:

Compound | IC50 [1] | IC50 [2] | ED90, daily dose that reduces parasitemia by 90% to untreated control animals [3]
Nc1nc(N)c(-c2cnn(C(F)F)c2)cc1C(=O)NCc1ccc(OCC(F)(F)F)cc1F [IX, 2,6-diamino-5-(1-(difluoromethyl)-1H-pyrazol-4-yl)-N-(2-fluoro-4-(2,2,2-trifluoroethoxy)benzyl)nicotinamide] | 0.05 µg/mL and 113 nM | 0.083 µg/mL and 160 nM | 
C[C@@H](Oc1ccc(CNC(=O)c2cc(-n3cnc(C(F)F)n3)c(N)nc2N)cc1)C(F)(F)F [V, (R)-2,6-diamino-5-(3-(difluoromethyl)-1H-1,2,4-triazol-1-yl)-N-(4-((1,1,1-trifluoropropan-2-yl)oxy)benzyl)nicotinamide] | 0.047 µg/mL and 99 nM | 0.075 µg/mL and 160 nM | 6.2 mg/kg/day
C[C@@H](Oc1ccc(CNC(=O)c2cc(-n3cnc(C(F)(F)F)n3)c(N)nc2N)cc1)C(F)(F)F [compound I, (R)-2,6-diamino-5-(3-(trifluoromethyl)-1H-1,2,4-triazol-1-yl)-N-(4-((1,1,1-trifluoropropan-2-yl)oxy)benzyl)nicotinamide] | 0.026 µg/mL | 0.043 µg/mL and 30 nM | 3.2 mg/kg/day
C[C@@H](Oc1ccc(CNC(=O)c2cc(-c3cnn(C(F)F)c3)c(N)nc2N)cc1)C(F)(F)F [compound II, (R)-2,6-diamino-5-(1-(difluoromethyl)-1H-pyrazol-4-yl)-N-(4-((1,1,1-trifluoropropan-2-yl)oxy)benzyl)nicotinamide] | 0.02 µg/mL and 42 nM | 0.025 µg/mL and 53 nM | 5.0 mg/kg/day
